{"source": "patent US20210292296A1", "about": "“1,2,4-Trioxane compounds and compositions comprising the same for use in the treatment of COVID-19” (priority 2020, published 2021)", "key": {"[1]": {"assay": "Aqueous stability of artemisinin in presence of additives (1H NMR)", "assay_type": "physicochemical", "conditions": "93° C. for 90 minutes", "procedure": "Two solvents were tested, tap water and premade black coffee, and glucose (1 equivalent) was tested as a reductant. All mixtures were heated to 93° C. for 90 minutes in 10 mL glass vials open to the atmosphere. Halfway through heating, 1-2 mL of tap water was added to compensate for evaporation. Following heating, 2 mL ethyl acetate was added, and the biphasic solution was dried using a rotary evaporator with water bath at 40° C. The flask was further dried for three hours under high vacuum. All samples were dissolved in CDCl3 containing 0.5 equivalents of an internal standard (1,2,4,5-tetramethylbenzene) and ^1H NMR performed."}, "[2]": {"tested_on": "SARS-CoV-2", "assay": "Pretreatment screening, SARS-CoV-2 plaque numbers on Vero E6 cells", "assay_type": "cell-based"}, "[3]": {"tested_on": "SARS-CoV-2", "assay": "SARS-CoV-2 induced cytopathic effect (CPE) in Vero E6 cells, MTS method", "assay_type": "cell-based", "conditions": "72 h"}}}
{"smiles": "C[C@@H]1CC[C@H]2[C@@H](C)C(=O)O[C@@H]3O[C@@]4(C)CC[C@@H]1[C@]32OO4", "note": "[artemisinin]", "values": [{"measurement": "loss of artemisinin", "setting": "[1]; premade black coffee + glucose (1 equivalent)", "result": 19, "unit": "%"}, {"measurement": "degradation of artemisinin", "setting": "[1]; premade black coffee", "result": 17, "unit": "%"}, {"measurement": "loss of artemisinin", "setting": "[1]; tap water + glucose (1 equivalent)", "result": 32, "unit": "%"}, {"measurement": "# of Plaques", "setting": "[2]; pretreatment 15 min, dilution 100", "result": 78}, {"measurement": "# of Plaques", "setting": "[2]; pretreatment 15 min, dilution 1,000", "result": 104}, {"measurement": "# of Plaques", "setting": "[2]; pretreatment 15 min, dilution 10,000", "result": 109}, {"measurement": "plaques observed divided by average of negative control multiplied by 100", "setting": "[2]; pretreatment 15 min, sample 0.22 μg/mL", "result": 95.63}, {"measurement": "plaques observed divided by average of negative control multiplied by 100", "setting": "[2]; pretreatment 15 min, sample 2.2 μg/mL", "result": 84.06}, {"measurement": "plaques observed divided by average of negative control multiplied by 100", "setting": "[2]; pretreatment 15 min, sample 22 μg/mL", "result": 80.21}, {"measurement": "plaques observed divided by average of negative control multiplied by 100", "setting": "[2]; pretreatment 15 min, sample 220 μg/mL", "result": 60.15}, {"measurement": "# of Plaques", "setting": "[2]; pretreatment 30 min, dilution 100", "result": 88}, {"measurement": "# of Plaques", "setting": "[2]; pretreatment 30 min, dilution 1,000", "result": 100}, {"measurement": "# of Plaques", "setting": "[2]; pretreatment 30 min, dilution 10,000", "result": 102}, {"measurement": "plaques observed divided by average of negative control multiplied by 100", "setting": "[2]; pretreatment 30 min, sample 0.22 μg/mL", "result": 104.88}, {"measurement": "plaques observed divided by average of negative control multiplied by 100", "setting": "[2]; pretreatment 30 min, sample 2.2 μg/mL", "result": 78.66}, {"measurement": "plaques observed divided by average of negative control multiplied by 100", "setting": "[2]; pretreatment 30 min, sample 22 μg/mL", "result": 78.66}, {"measurement": "plaques observed divided by average of negative control multiplied by 100", "setting": "[2]; pretreatment 30 min, sample 220 μg/mL", "result": 67.87}, {"measurement": "# of Plaques", "setting": "[2]; pretreatment 60 min, dilution 100", "result": 96}, {"measurement": "# of Plaques", "setting": "[2]; pretreatment 60 min, dilution 1,000", "result": 120}, {"measurement": "# of Plaques", "setting": "[2]; pretreatment 60 min, dilution 10,000", "result": 100}, {"measurement": "plaques observed divided by average of negative control multiplied by 100", "setting": "[2]; pretreatment 60 min, sample 0.22 μg/mL", "result": 95.63}, {"measurement": "plaques observed divided by average of negative control multiplied by 100", "setting": "[2]; pretreatment 60 min, sample 2.2 μg/mL", "result": 77.12}, {"measurement": "plaques observed divided by average of negative control multiplied by 100", "setting": "[2]; pretreatment 60 min, sample 22 μg/mL", "result": 92.54}, {"measurement": "plaques observed divided by average of negative control multiplied by 100", "setting": "[2]; pretreatment 60 min, sample 220 μg/mL", "result": 74.04}, {"measurement": "# of Plaques", "setting": "[2]; pretreatment 120 min, dilution 100", "result": 106}, {"measurement": "plaques observed divided by average of negative control multiplied by 100", "setting": "[2]; pretreatment 120 min, sample 0.22 μg/mL", "result": 103.34}, {"measurement": "plaques observed divided by average of negative control multiplied by 100", "setting": "[2]; pretreatment 120 min, sample 2.2 μg/mL", "result": 95.63}, {"measurement": "plaques observed divided by average of negative control multiplied by 100", "setting": "[2]; pretreatment 120 min, sample 22 μg/mL", "result": 103.34}, {"measurement": "plaques observed divided by average of negative control multiplied by 100", "setting": "[2]; pretreatment 120 min, sample 220 μg/mL", "result": 81.75}]}
{"smiles": "C[C@H]1[C@H](OC(=O)CCC(=O)O)O[C@@H]2O[C@@]3(C)CC[C@H]4[C@H](C)CC[C@@H]1[C@@]24OO3", "note": "[artesunate]", "values": [{"measurement": "EC50 (inhibition of virus-induced CPE)", "setting": "[3]", "result": "sufficiently low"}]}
